Measurements taken from patent EP1994944A1, “Polymer conjugate compounds for the inhibition of apoptosis” (Laboratorios SALVAT, S.A., priority 2007, dated 2008).
Marks after values point to notes of the source that are not given here.

Columns and labels:
[1] = system: Caspase activity; assay: Caspase inhibition assay (time-dependent, Ac-DEVD-afc substrate) in cultured cells; format: cell-based; conditions: Saos-2, 50 µM drug-eq., apoptosis induced by doxycyclin 2 µM, vs non-treated cells
Procedure: The time-dependent inhibition of caspase induced by the compounds described in this invention was analyzed. Cell lines were grown in the presence or absence of compounds (50 µM) at different times. Caspase activity was assayed using Saos-2 or U937 cultured cell lines and Ac-DEVD-afc (N-acetyl-Asp-Glu-Val-Asp-afc(7-amino-4-trifluoromethyl coumarin)) as substrate (20 µM). For Saos-2 cell line, apoptosis induction was carried out by the addition of doxycyclin 2 µM; in the case of U937, apoptosis was induced by doxorubicin 0.25 µM. Caspase activity was continuously monitored by the liberation of fluorescent afc using a Cytofluor 4000 fluorimeter (excitation 400 nm; emission 508 nm) for 2 hour. The effect of the compounds on the caspase activity was expressed as the percentage of inhibition in the fluorescence signal of treated cells vs the non-treated cells (control). As control is shown the activity of the previously described conjugate with diglycil linker (named as diglycil)

[2] = target: T1, Cathepsin B (Homo sapiens, UniProt P07858); assay: Degradation on incubation with Cathepsin B: Mw loss and drug release profile from PGA-conjugate; format: in vitro ADME; conditions: Cathepsin B (5 U), pH 6 buffer, 37°C; for 50% drug release t: determined by HPLC; for 50% Mw Loss t: determined by Size Exclusion Chromatography (SEC)
Procedure: Aqueous solutions of I.1 (1 mg/mL) were prepared, and an aliquot (100 µL) was added to a polypropylene tube and made up to 1 mL with water. The pH of the samples was adjusted to 8 with ammonium formate buffer (100 µL, 1 M, pH 8.5), and then CHCl3 (5 mL) was added. Samples were then thoroughly extracted by vortexing (3 x 10 sec). The […] layer was carefully removed and the solvent was evaporated under N2. The dry residue was dissolved in 200 µL of HPLC grade acetonitrile. In parallel the same procedure was carried out for the parent compound II.1 (using 200µL of a 1 mg/mL stock aqueous solution). Addition of 1 mL of acetonitrile to redissolve the product gave a 200 µg/mL stock from which a range of concentrations was prepared (2 to 100 µg/mL). The free amount of drug in the conjugates was determined by HPLC using a Lichrospher® C18 (150 x 3.9 mm) column. Flow rate 1 mL/min using an acetonitrile gradient in aqueous 0.1 % TFA (from 10 to 90% of acetonitrile in 25 min). The retention time was tr = 22.5 min for II.1 (λ = 220 nm) and tr = 22.0 for II.2.
Cathepsin B (5 U) was added last to a solution of 3 mg PGA or PGA-conjugate I in 1 mL of a pH 6 buffer composed by 20 mM sodium acetate, 2 mM EDTA and 5 mM DTT. Incubation was carried out at 37°C. Aliquots (150 µL) were taken at times up to 72 h, immediately frozen in liquid nitrogen, and stored frozen in the dark until assayed by HPLC (analysis of 100 µL aliquots after extraction procedure) and/or GPC (direct analysis of 50 µL aliquots). In control experiments polymers were incubated in buffer alone (without addition of cathepsin B) to assess non-enzymatic hydrolytic cleavage. In addition, free drug (0.75 mg/mL) was also incubated under same conditions and later used as the reference control. HPLC Evaluation of Released Drug (VIIIa, I.1 or I.2) The extraction method described above to determine free drug content of the conjugate samples was also used here. Mass analysis of the released compounds was carried out by MALDI TOF TOF. GPC Evaluation of Polymer Mw loss. The 50 µL aliquots were diluted up to 200 µL with buffer (PBS) and the Mw determined by GPC using PEG standards. Generally degradation profiles for biomedical polymers are obtained under constant sink conditions and the results correlated with mass loss of the polymer. Since PGA polymers are water soluble, the relative peak areas used in the GPC derived molecular weight calculations provided a suitable alternative to indicate the relative amount of the polymer that remained at each timepoint. As the polymer degraded there was a notable loss of I (PGA-conjugate) molecular weight. Therefore, the loss with time of the area under the curve (AUC) for I and PGA (XII) was considered to evaluate the rate of backbone degradation. […]

[3] = target: T1, Cathepsin B; conditions: reference value from Vicent MJ and Pérez-Payá, J. Med. Chem. 2006, 49, 3763-3765, cited from earlier work

Substance | % Caspase Inhibition ([1]; Time 24 h) [%] | % Caspase Inhibition ([1]; Time 48 h) [%] | % Caspase Inhibition ([1]; Time 72 h) [%] | 50% drug release t [2] [h] | 50% Mw Loss t [2] [h] | 50% drug release t (h) ([3]; determined by HPLC) | 50% Mw Loss t (h) ([3]; determined by SEC)
Poly-L-glutamic acid [2-Amino-4-methylpentanoic acid (1-{{[({carbamoylmethyl-[2-(2,4-dichlorophenyl)ethyl]carbamoyl}methyl)-(3,3-diphenylpropyl)carbamoyl]methyl}-[2-(2,4-dichlorophenyl)ethyl]carbamoyl}-2-methylpropyl)amide] conjugate [I.2] | 65 | 100 | 100 | 20 | 30 |  | 
Poly-L-glutamic acid [2-(2-Amino-3-phenylpropionylamino)-N-{[({carbamoylmethyl-[2-(2,4-dichlorophenyl)ethyl]carbamoyl}methyl)-(3,3-diphenylpropyl)carbamoyl]-methyl}-N-[2-(2,4-dichlorophenyl)ethyl]-3-methylbutyramide] conjugate [I.1] | 23 | 65 | 100 | 0.7 | 5 |  | 
Poly-L-glutamic acid [2-Amino-pentanoic acid (1-{{[({carbamoyl[2-(2,4-chlorophenyl)ethyl]carbamoyl}methyl)-(3,3-diphenylpropyl)carbamoyl]methyl}-[2-(2,4-dichlorophenyl)ethyl]carbamoyl}-2-methylpropyl)amide] conjugate [diglycil, reference compound] | 67 | 72 | 100 |  |  | 30^c h | 60^c h
